According to patent publication US20150374689A1, “Use of Levosimendan to Treat Left Ventricular Systolic Dysfunction in Patients Undergoing Cardiac Surgery Requiring Cardiopulmonary Bypass” (TENAX Therapeutics, Inc., priority 2014, published 2015):

Assays:
[1] = cited from earlier work; for formation of the metabolite: patients undergoing cardiac surgery
[2] = tested on: patients with left ventricular systolic dysfunction undergoing cardiac surgery requiring cardiopulmonary bypass; experiment: Double-blind, randomized, placebo-controlled clinical trial of levosimendan (Example 1); assay type: in vivo, human
Procedure: A randomized, double-blind, placebo-controlled, multicenter study of levosimendan is conducted in subjects with pre-existing left ventricular systolic dysfunction (documented (i) LVEF≦25% in CABG surgery patients, or (ii) LVEF≦35% in CABG with aortic valve surgery patients, CABG with mitral valve surgery patients, or isolated mitral valve surgery patients) with or without heart failure (NYHA functional Class I-IV), undergoing (1) CABG surgery, (2) CABG with aortic valve surgery, (3) CABG with mitral valve surgery, or (4) isolated mitral valve surgery.
All patients are randomized with planned CPB. Approximately 760 subjects are enrolled in the study. Subjects are randomly assigned to receive either levosimendan or a matching placebo in a 1:1 ratio. The study is divided into a screening phase, a double-blind treatment phase, a double-blind post-treatment and follow-up phase from hospital discharge through Day 30. Day 0 is the day of study drug (levosimendan or matching placebo) initiation. All randomly assigned subjects are followed for 90 days, including subjects who were randomly assigned to treatment but not treated.
In the double-blind treatment phase, every attempt is made to start treatment with study drug as soon as possible prior to surgery. However, in all cases study drug is initiated after arterial line insertion and before skin incision. If a Swan-Ganz catheter is planned, it is preferable to insert it prior to study drug initiation. Study drug is administered as described below. Subjects who were randomly assigned to treatment but not treated will be followed (a) through Day 5 for perioperative MI and the need for IABP/LVAD/ECMO, (b) through postoperative […] for postoperative MI (Day 6-10) and postoperative dialysis, and (c) the occurrence of all-cause mortality through Day 90. All subjects may receive additional standard of care medications including inotropes, vasopressors, vasopressin, antiarrhythmics, diuretics, nitrates, and/or nitric oxide as needed. Due to the potential hypotensive effects of the study drug, the concomitant use of vasodilatory drugs should be used with caution.
Subjects are assigned to 1 of 2 treatment groups (levosimendan 0.2 μg/kg/min for first hour, followed by 0.1 μg/kg/min for the next 23 hours or matching placebo) in a 1:1 ratio based on a computer-generated randomization schedule prepared before the start of the study by an independent statistical group not otherwise involved in the conduct or analysis of the study.
The concentration of the diluted infusion is about 50 μg/mL in 5% dextrose (12.5 mg/255 mL in a 250 mL bag; 25 mg/510 mL, 2 vials in a 500 mL bag). The i.v. tubing is primed to fill the volume to the i.v. entry site before starting the infusion. The diluted infusion is administered intravenously by a peripheral or central route. No other treatments are administered via the same line, and no bolus of study drug is administered. Study drug is infused as a continuous infusion of 0.2 μg/kg/min over the first 60 minutes. After 1 hour, the flow rate is decreased to a continuous infusion of 0.1 μg/kg/min. This dose of study drug is continued for the next 23 hours. On completion of the 24-hour infusion period, the study drug infusion is switched off abruptly.
All-cause mortality data (e.g., the cause and date of death) is collected for all subjects up to Day 30 (+5). A follow-up call documents mortality between Day 30 visit and Day 90. […]

[3] = through Day 5, same 24-hour infusion regimen

## CC1CC(=O)NN=C1c1ccc(NN=C(C#N)C#N)cc1 (single isomer, unassigned; (-)) [levosimendan, (−)-enantiomer of [[4-(1,4,5,6-tetrahydro-4-methyl-6-oxo-3-pyridazinyl)phenyl]hydrazono]prop anedinitrile]
[1]; of the total levosimendan dose
  share of total dose metabolised by the minor pathway (reduction in the intestine to OR-1855): approximately 6%
[2]; Day 30, same 24-hour infusion regimen
  rate of all-cause death at Day 30 as compared to placebo: smaller
[2]; levosimendan i.v. 0.2 μg/kg/min for first hour, then 0.1 μg/kg/min for 23 hours, started before skin incision, plus standard care
  peri- and postoperative morbidity and mortality as compared to placebo: reduces
[2]; [3]
  rate of perioperative MI as compared to placebo: smaller
  use of mechanical assist (IABP, LVAD, or ECMO) as compared to placebo: reduced
[2]; through Day 30, same 24-hour infusion regimen
  need for dialysis as compared to placebo: lesser

## C[C@@H]1CC(=O)NN=C1c1ccc(N)cc1 [OR-1855]
[1]
  formation of the metabolite: delayed

## CC(=O)Nc1ccc(C2=NNC(=O)C[C@H]2C)cc1 [OR-1896]
[1]; after starting a 24-hour infusion, heart failure patients
  time at which maximum concentrations are seen: 2 to 4 days
[1]; heart failure patients
  elimination half-life: 70 to 80 h
[1]
  formation of the metabolite: delayed
